Results: publication PMC6195765 (Organic letters, 2018)

Test system: PvfC
Assay: ATP-[…]PPi exchange assay
Assay type: biochemical, Pseudomonas entomophila
Conditions: ATP co-substrate; adenylation domain

Question: With `CC(C)[C@H](N)C(=O)O` [L-Val] as the compound, how does the Km read?
Answer: 3.4 ± 0.7 mM
